Measured values from paper PMC11096148 (EJNMMI Radiopharmacy and Chemistry, 2024).
“And” between values parts separate entries of the source, which are not always exact repeats. Equal entries are not always repeated.

Columns and labels:
ASGR = system: ASGR; set-up: method as in Stokmaier et al. [2009]; conditions: higher than galactose; ref Stokmaier et al. [2009]; cited from earlier work
mouse hepatic organoids = experiment: Organoid uptake assay and fluorescence imaging; format: cell-based; conditions: 1 h at 37 °C
Experimental: For blocking, the experiment was conducted in presence of 10 mM GalNAc. At the end of the incubation time, cells were put on ice for 1 min and spun down (300 rcf, 5 min, 4 °C). The supernatant was carefully removed and organoids were washed twice with 200 µL of ice-cold PBS. Internalized activity was released by treating the organoids with 200 µL of 1 M NaOH for 10 min. Lysates were transferred into scintillation vials and the activity content was measured in a γ-counter. Organoid uptake was determined as the percentage of total radioactivity added.
For microscopic studies organoids were incubated with 333 nM BP-Fluor-647-TriGalactan for 1 h at 37 °C. Cells were pelleted, washed once with PBS and fixated by addition of 200 µL of fixation buffer (BD Cytofix/Cytoperm™, Fisher Scientific, Hampton, USA). After 1 h at room temperature, cells were washed again with PBS and incubated in 100 µL of perm/wash-buffer (Biozym, Hessisch Oldendorf, Germany) for another 30 min. For counter staining organoids were incubated over night at 4 °C with 30 µL of a mixture of 2 µM Hoechst 33,342 (Thermo Scientific), 165 nM Phalloidin CruzFluor™ 555 (Santa Cruz, Dallas, Texas, USA) and Anti-ASGR1 AF488-coupled antibody (2 µg/mL, Bio-Techne, Dublin, Ireland). The next day, organoids were centrifuged, washed three times with PBS and transferred to a CellCarrier-96 Ultra Microplate (PerkinElmer). The Operetta CLS system (revvity, Hamburg, Germany) was used to image the samples. Analysis was performed using the Harmony software 4.9.
Mouse hepatic organoids (Stemcell Technologies, Vancouver, Canada) were cultivated in HepatiCult® organoid growth medium supplemented with 1 % Penicillin/Streptomycin + l-Glutamine (Thermofisher Scientific, Waltham, Massachussetts, USA) embedded in a Geltrex^TM (Thermofisher Scientific) LDEV-free reduced growth factor basement membrane matrix. Medium was replaced every 3-4 days and organoids were passaged every 7-10 days. For passaging, matrix domes were mechanically disrupted and the cell suspension was transferred into a 15 mL falcon tube. […]

[1] = Stability in human blood serum; format: in vitro ADME; conditions: for Serum stability: human blood serum
Experimental: (§1) A detailed synthetic procedure for preparation of NODAGA-TriGalactan including analytical data as well as a complete list of all reagents can be found in the supplementary information. Protocols for determination of logD, protein binding and stability studies have been described elsewhere (Hörmann et al. [2020]).
(§2) Binding to the ASGR was quantified in an assay with freshly isolated mouse hepatocytes using the ^natGa-complex of NODAGA-TriGalactan. Hepatocytes were seeded in a 24-well plate and competitive binding against [^125I]I-asialorosomucoid (ASOR) was studied.

Stability in PBS = format: physicochemical
Experimental: as §1, §2

plasma protein = experiment: Protein binding; format: in vitro ADME
Experimental: as §1, §2

[2] = Biodistribution studies in healthy BALB/c mice; format: in vivo
Experimental: For biodistribution studies 6 week old female BALB/c mice (n = 3, Charles Rivers Laboratories, Sulzfeld, Germany) were injected with 0.1 nmol (100 µL, approx. 1 MBq) of ^68Ga-labelled compound via the lateral tail vein and sacrificed by cervical dislocation 10, 30, or 60 min post injection (p.i.). The mice were dissected, blood and organs were weighed and the activity of the samples measured in a γ-counter. For blocking experiments, mice were co-injected with 27.7 µmol of D-galactose.

[3] = Small animal dynamic PET/MR imaging, time activity curves; format: in vivo; conditions: C57BL/6J mice
Experimental: All animal experiments were performed according to the German animal welfare act and approved by the local authorities (R5/19). Male C57BL/6J mice were purchased from Janvier Lab (Saint-Berthevin Cedex, France) at 6 weeks. Mice were kept under 1.5% isoflurane in oxygen during the measurements (n = 3). Approximately 1 MBq of the radiotracer was injected intravenously per mouse and 1 h dynamic PET was performed with an Inveon microPET system (Inveon D-PET, Siemens, Knoxville, TN, USA). Mice were then transferred to a 7 Tesla BioSpec 70/30 USR (Bruker Biospin MRI GmbH, Ettlingen, Germany) and a 15 min MR anatomical scan using T2-weighted 3-dimensional turbo spin-echo sequence was acquired. An Inveon Acquisition Workplace was used to reconstruct the acquired images using ordered subset expectation maximization 3D (OSEM 3D) and framing the dynamics. The reconstructed image analysis was performed by using an Inveon Research Workplace. After co-registering acquired MR images with PET images, regions of interest (ROIs) were drawn on liver, heart, muscle, and kidney and time activity curves (TACs) were quantified.

[4] = target: T1, asialoglycoprotein receptor (ASGR) (Mus musculus, UniProt P24721+P34927); experiment: Competitive binding against [^125I]I-asialoorosomucoid on freshly isolated mouse hepatocytes; conditions: [^125I]I-asialoorosomucoid 5 nM, 1 hour on ice
T1 construct: endogenous in cells; host or cells: primary hepatocytes freshly isolated from C57BL/6 mice (collagenase perfusion)
T1 sequence (P34927 1-284): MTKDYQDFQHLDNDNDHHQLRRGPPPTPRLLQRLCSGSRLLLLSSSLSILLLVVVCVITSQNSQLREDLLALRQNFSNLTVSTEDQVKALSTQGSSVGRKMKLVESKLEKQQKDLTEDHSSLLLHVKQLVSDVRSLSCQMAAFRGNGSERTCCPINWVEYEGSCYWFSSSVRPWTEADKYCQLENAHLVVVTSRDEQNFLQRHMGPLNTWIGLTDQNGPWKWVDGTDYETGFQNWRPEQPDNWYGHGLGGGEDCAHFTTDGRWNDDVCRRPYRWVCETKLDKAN
T1 sequence (P24721 1-301): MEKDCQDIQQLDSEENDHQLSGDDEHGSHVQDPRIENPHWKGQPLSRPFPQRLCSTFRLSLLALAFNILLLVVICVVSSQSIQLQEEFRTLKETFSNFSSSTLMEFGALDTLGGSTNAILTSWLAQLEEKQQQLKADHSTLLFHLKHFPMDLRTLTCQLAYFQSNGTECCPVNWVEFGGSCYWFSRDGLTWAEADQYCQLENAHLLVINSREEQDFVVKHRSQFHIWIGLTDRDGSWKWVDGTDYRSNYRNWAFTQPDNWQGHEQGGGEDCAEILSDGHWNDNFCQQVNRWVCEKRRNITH
Experimental: Inhibitory constant (IC50) values were determined in triplicates using freshly isolated mouse hepatocytes (Seglen [1976]). […] In brief, cells were incubated in presence of [^125I]I-asialoorosomucoid (5 nM) with various ligand concentrations ranging from 10^− 5-10^− 11 M for 1 hour on ice. Cells were washed and cell bound activity was released by addition of 200 µL 1 M NaOH for 10 min. The activity content in the lysates was quantified in a γ-counter (2480 Wizard^2 3”, PerkinElmer, Waltham, Massachussetts, USA) and the values were plotted in excel. Fitting of the sigmoidal binding curve and the calculation of the IC50 value was done with excel’s solver plugin.
Binding to the ASGR was quantified in an assay with freshly isolated mouse hepatocytes using the ^natGa-complex of NODAGA-TriGalactan. Hepatocytes were seeded in a 24-well plate and competitive binding against [^125I]I-asialorosomucoid (ASOR) was studied. For comparison, the affinity of GSA for the receptor was also determined.
Isolation of murine hepatocytes followed the collagenase perfusion method published by Seglen [4]. Therefore, C57BL/6 mice were euthanized by cervical dislocation and subsequently the peritoneum was opened. […] Hepatocytes were resuspended in 20 – 30 mL of William’s E + Glutamaxx + 10 % FCS + 1 % Penicillin/Streptomycin (Gibco, Thermofisher Scientific) and counted, typically yielding 30 – 40 × 10^6 cells/animal. […]

[5] = 30 min p.i., blocking with 27.7 µmol D-galactose

Compound: CC(=O)N[C@H]1C(O)O[C@H](CO)[C@H](O)[C@@H]1O (mixture of isomers) [GalNAc, N-acetylgalactosamine]
- affinity for the ASGR relative to galactose (ASGR): 10 times

Compound: CC1(CCCCCC(=O)NCCCC(=O)NC(COCc2cn(CCOCCOCCO[C@@H]3O[C@H](CO)[C@H](O)[C@H](O)[C@H]3O)nn2)(COCc2cn(CCOCCOCCO[C@@H]3O[C@H](CO)[C@H](O)[C@H](O)[C@H]3O)nn2)COCc2cn(CCOCCOCCO[C@@H]3O[C@H](CO)[C@H](O)[C@H](O)[C@H]3O)nn2)C(/C=C/C=C/C=C2/N(CCCS(=O)(=O)O)c3ccc(S(=O)(=O)O)cc3C2(C)C)=[N+](CCCS(=O)(=O)[O-])c2ccc(S(=O)(=O)O)cc21 (stereo partly shown) [BP-Fluor-647-TriGalactan]
- Fluorescence imaging of mouse hepatic organoids (mouse hepatic organoids; 333 nM, co-staining with anti-ASGR antibody): internalization of the trimer into the organoids

Compound: O=C([O-])CN1CCN(CC(=O)[O-])CCN([C@H](CCC(=O)NCCCC(=O)NC(COCc2cn(CCOCCOCCO[C@@H]3O[C@H](CO)[C@H](O)[C@H](O)[C@H]3O)nn2)(COCc2cn(CCOCCOCCO[C@@H]3O[C@H](CO)[C@H](O)[C@H](O)[C@H]3O)nn2)COCc2cn(CCOCCOCCO[C@@H]3O[C@H](CO)[C@H](O)[C@H](O)[C@H]3O)nn2)C(=O)[O-])CC1.[68Ga+3] [[^68Ga]Ga-NODAGA-TriGalactan]
- Serum stability ([1]; 2 min): 99.8 ± 0%
- Serum stability ([1]; 30 min): 97.6 ± 2.3%
- Serum stability ([1]; 60 min): 98.5 ± 1.2%
- Serum stability ([1]; 120 min): 92.9 ± 4.6%
- stability in human blood serum (intact tracer) ([1]; over the time course of 2 h): > 93%
- PBS stability (Stability in PBS; 2 min): 99.8%
- PBS stability (Stability in PBS; 30 min): 99.8%
- PBS stability (Stability in PBS; 60 min): 99.8%
- PBS stability (Stability in PBS; 120 min): 99.8%
- stability in PBS (intact tracer) (Stability in PBS; over the time course of 2 h): > 99%
- Protein binding (plasma protein; 2 min of incubation): 7.6 ± 3.9%
- Protein binding (plasma protein; 30 min of incubation): 5.5 ± 0.5%
- Protein binding (plasma protein; 60 min of incubation): 9.2 ± 0.2%
- Protein binding (plasma protein; 120 min of incubation): 13.6 ± 3.2%
- Cellular uptake on mouse hepatic organoids (mouse hepatic organoids; 0.3 nM tracer): decent degree of internalization
- Cellular uptake with blocking on mouse hepatic organoids (mouse hepatic organoids; in presence of 10 mM GalNAc, p < 0.05): receptor specific interaction with the ASGR
- Biodistribution Blood ([2]; 10 min p.i.): 3.3 ± 0.2 % ID/g
- Biodistribution Femur ([2]; 10 min p.i.): 0.87 ± 0.52 % ID/g
- Biodistribution Intestine ([2]; 10 min p.i.): 1.13 ± 0.07 % ID/g
- Biodistribution Kidneys ([2]; 10 min p.i.): 8.2 ± 0.5 % ID/g and 8.15 ± 0.54 % ID/g
- Biodistribution Liver ([2]; 10 min p.i.): 33.4 ± 0.9 % ID/g
- Biodistribution Lung ([2]; 10 min p.i.): 2.14 ± 0.13 % ID/g
- Biodistribution Muscle ([2]; 10 min p.i.): 0.77 ± 0.02 % ID/g
- Biodistribution Pancreas ([2]; 10 min p.i.): 0.87 ± 0.12 % ID/g
- Biodistribution Spleen ([2]; 10 min p.i.): 0.78 ± 0.05 % ID/g
- Biodistribution Blood ([2]; 30 min p.i.): 0.89 ± 0.09 % ID/g
- Biodistribution Femur ([2]; 30 min p.i.): 0.22 ± 0.02 % ID/g
- Biodistribution Heart ([2]; 30 min p.i.): 0.40 ± 0.03 % ID/g
- Biodistribution Intestine ([2]; 30 min p.i.): 1.95 ± 0.17 % ID/g
- Biodistribution Kidneys ([2]; 30 min p.i.): 2.83 ± 0.18 % ID/g
- Biodistribution Liver ([2]; 30 min p.i.): 32.2 ± 3.7 % ID/g
- Biodistribution Lung ([2]; 30 min p.i.): 0.74 ± 0.03 % ID/g
- Biodistribution Muscle ([2]; 30 min p.i.): 0.23 ± 0.03 % ID/g
- Biodistribution Pancreas ([2]; 30 min p.i.): 0.31 ± 0.05 % ID/g
- Biodistribution Spleen ([2]; 30 min p.i.): 0.27 ± 0.02 % ID/g
- Biodistribution Stomach ([2]; 30 min p.i.): 1.05 ± 0.08 % ID/g
- Biodistribution Blood [2, 5]: 1.19 ± 0.33 % ID/g
- Biodistribution Femur [2, 5]: 0.37 ± 0.16 % ID/g
- Biodistribution Heart [2, 5]: 0.44 ± 0.03 % ID/g
- Biodistribution Intestine [2, 5]: 0.77 ± 0.19 % ID/g
- Biodistribution Kidneys [2, 5]: 4.19 ± 0.29 % ID/g
- Biodistribution Liver [2, 5]: 14.6 ± 0.15 % ID/g
- Biodistribution Lung [2, 5]: 0.97 ± 0.04 % ID/g
- Biodistribution Muscle [2, 5]: 0.43 ± 0.20 % ID/g
- Biodistribution Pancreas [2, 5]: 0.45 ± 0.01 % ID/g
- Biodistribution Spleen [2, 5]: 0.32 ± 0.03 % ID/g
- Biodistribution Stomach [2, 5]: 0.68 ± 0.11 % ID/g
- Biodistribution Blood ([2]; 60 min p.i.): 0.3 ± 0.04 % ID/g and 0.34 ± 0.04 % ID/g
- Biodistribution Femur ([2]; 60 min p.i.): 0.26 ± 0.19 % ID/g
- Biodistribution Heart ([2]; 60 min p.i.): 0.17 ± 0.00 % ID/g
- Biodistribution Intestine ([2]; 60 min p.i.): 3.0 ± 0.4 % ID/g and 2.99 ± 0.43 % ID/g
- Biodistribution Kidneys ([2]; 60 min p.i.): 1.51 ± 0.10 % ID/g
- Biodistribution Liver ([2]; 60 min p.i.): 27.7 ± 3.1 % ID/g
- Biodistribution Lung ([2]; 60 min p.i.): 0.38 ± 0.10 % ID/g
- Biodistribution Muscle ([2]; 60 min p.i.): 0.17 ± 0.02 % ID/g
- Biodistribution Pancreas ([2]; 60 min p.i.): 0.19 ± 0.09 % ID/g
- Biodistribution Spleen ([2]; 60 min p.i.): 0.16 ± 0.02 % ID/g
- Biodistribution Stomach ([2]; 60 min p.i.): 0.92 ± 0.04 % ID/g
- Time of kidney activity peak, PET TAC [3]: ~1.5 min
- Background muscle uptake, PET TAC ([3]; 1 h dynamic PET): less than 3 % ID/mL
- Activity in the blood (measured in the heart), PET TAC ([3]; within the first three minutes): below 5 % ID/mL

Compound: O=C([O-])CN1CCN(CC(=O)[O-])CCN([C@H](CCC(=O)NCCCC(=O)NC(COCc2cn(CCOCCOCCO[C@@H]3O[C@H](CO)[C@H](O)[C@H](O)[C@H]3O)nn2)(COCc2cn(CCOCCOCCO[C@@H]3O[C@H](CO)[C@H](O)[C@H](O)[C@H]3O)nn2)COCc2cn(CCOCCOCCO[C@@H]3O[C@H](CO)[C@H](O)[C@H](O)[C@H]3O)nn2)C(=O)[O-])CC1.[Ga+3] [[^natGa]Ga-NODAGA-TriGalactan]
- IC50 [4]: 73.2 ± 67.5 nM
